# Target: T1, human TLR7 (Homo sapiens, UniProt Q9NYK1)
# T1 construct: host or cells: HEK-Blue TLR7 cells (engineered human embryonic kidney cells)
# T1 sequence (Q9NYK1 27-1049): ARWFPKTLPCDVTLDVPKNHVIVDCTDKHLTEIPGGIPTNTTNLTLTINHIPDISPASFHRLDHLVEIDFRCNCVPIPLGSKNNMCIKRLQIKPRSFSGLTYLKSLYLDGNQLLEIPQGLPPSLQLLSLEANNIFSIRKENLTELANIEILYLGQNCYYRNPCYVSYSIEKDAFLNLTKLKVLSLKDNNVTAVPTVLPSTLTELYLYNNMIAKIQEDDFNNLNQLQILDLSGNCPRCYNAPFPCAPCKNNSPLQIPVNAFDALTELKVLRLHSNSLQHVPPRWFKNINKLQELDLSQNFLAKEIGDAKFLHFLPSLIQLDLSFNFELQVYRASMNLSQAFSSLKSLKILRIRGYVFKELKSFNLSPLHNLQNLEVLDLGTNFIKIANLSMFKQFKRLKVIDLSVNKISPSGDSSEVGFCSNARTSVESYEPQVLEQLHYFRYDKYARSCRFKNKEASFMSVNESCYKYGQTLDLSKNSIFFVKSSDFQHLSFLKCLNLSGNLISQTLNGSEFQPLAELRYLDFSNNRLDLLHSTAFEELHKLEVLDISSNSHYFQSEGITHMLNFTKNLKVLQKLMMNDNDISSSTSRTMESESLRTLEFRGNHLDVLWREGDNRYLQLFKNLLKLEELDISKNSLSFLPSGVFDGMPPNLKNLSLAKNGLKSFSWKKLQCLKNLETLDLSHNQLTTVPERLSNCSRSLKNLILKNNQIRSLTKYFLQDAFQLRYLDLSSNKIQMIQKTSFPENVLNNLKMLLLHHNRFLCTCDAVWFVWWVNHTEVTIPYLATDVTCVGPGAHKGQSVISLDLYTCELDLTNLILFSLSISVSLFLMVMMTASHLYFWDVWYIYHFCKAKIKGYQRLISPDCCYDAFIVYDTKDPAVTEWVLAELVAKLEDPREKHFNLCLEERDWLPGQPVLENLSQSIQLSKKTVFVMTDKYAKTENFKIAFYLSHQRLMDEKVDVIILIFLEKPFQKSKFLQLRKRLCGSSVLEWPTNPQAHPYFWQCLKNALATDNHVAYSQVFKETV
# Test: Human TLR7 agonist activity assay (HEK-Blue TLR7 SEAP reporter)
# Assay type: cell-based
# Settings: HEK-Blue TLR7 cells, 18 h treatment, in some instances average of plural assays, read-out: hTLR7 EC50
# Protocol: Human TLR7 Agonist Activity Assay
# HEK-Blue™ TLR7 cells were added to each well of a 384-well tissue-culture plate (15,000 cells per well) and incubated 16-18 h at 37° C., 5% CO2. Compounds (100 nl) were dispensed into wells containing the HEK-Blue™ TLR cells and the treated cells were incubated at 37° C., 5% CO2. After 18 h treatment ten microliters of freshly-prepared Quanti-Blue™ reagent (Invivogen) was added to each well, incubated for 30 min (37° C., 5% CO2) and SEAP levels measured using an Envision plate reader (OD=620 nm).
row,SMILES,EC50
1,CCCCNc1nc(N)nc2cnn(Cc3ccc(CNC4CCC4)cc3OC)c12 [Compound 800],58.3 nM
2,CCCCNc1nc(N)nc2cnn(Cc3ccc(Oc4ccc(CNCCO)cc4)cc3OC)c12 [Compound 802],43.8 nM
3,CCCCNc1nc(N)nc2cnn(Cc3ccc(Oc4ccc(CO)cc4)cc3OC)c12 [Compound 803],569 nM
4,CCCCNc1nc(N)nc2cnn(Cc3ccc(CNCC(C)(C)O)cc3OC)c12 [Compound 805],41.4 nM
5,CCCCNc1nc(N)nc2cnn(Cc3ccc(CNC4CCC(O)CC4)cc3OC)c12 (stereo not shown) [Compound 806],41.4 nM
6,CCCCNc1nc(N)nc2cnn(Cc3ccc(CNCC4CC(O)C4)cc3OC)c12 (stereo not shown) [Compound 807],2550 nM
7,CCCCNc1nc(N)nc2cnn(Cc3ccc(Oc4ccc(CNCCOC)cc4)cc3OC)c12 [Compound 808],157 nM
8,CCCCNc1nc(N)nc2cnn(Cc3ccc(Oc4ccc(CN5CCN(C)CC5)cc4)cc3OC)c12 [Compound 809],74.5 nM
9,CCCCNc1nc(N)nc2cnn(Cc3ccc(Oc4ccc(CN5CCN(CCO)CC5)cc4)cc3OC)c12 [Compound 810],245 nM
10,CCCCNc1nc(N)nc2cnn(Cc3ccc(CNC4CC(O)C4)cc3OC)c12 (stereo not shown) [Compound 811],138 nM
11,CCCCNc1nc(N)nc2cnn(Cc3ccc(CN4CC5CNCC5C4)cc3OC)c12 (stereo not shown) [Compound 812],102 nM
12,CCCCNc1nc(N)nc2cnn(Cc3ccc(CN4CC(CCO)C4)cc3OC)c12 [Compound 815],33.2 nM
13,CCCCNc1nc(N)nc2cnn(Cc3ccc(CNCCO)cc3OC)c12 [Compound 816],92.5 nM
14,CCC[C@@H](CCO)Nc1nc(N)nc2cnn(Cc3ccc(CO)cc3OC)c12 [Compound 817],27.8 nM
15,CCCCNc1nc(N)nc2cnn(Cc3ccc(CO)cc3OC)c12 [Compound 818],258 nM
16,CCCCNc1nc(N)nc2cnn(Cc3ccc(CNC4(CO)CCCC4)cc3OC)c12 [Compound 820],121 nM
17,CCCCNc1nc(N)nc2cnn(Cc3ccc(CN4CCCNCC4)cc3OC)c12 [Compound 821],33.8 nM
18,CCCCNc1nc(N)nc2cnn(Cc3ccc(CNc4ccc(CCO)cc4)cc3OC)c12 [Compound 822],244 nM
19,CCCCNc1nc(N)nc2cnn(Cc3ccc(CN4CCN(CCO)CC4)cc3OC)c12 [Compound 823],21.5 nM
20,CCCCNc1nc(N)nc2cnn(Cc3ccc(CN(C)CCCO)cc3OC)c12 [Compound 825],43.5 nM
21,CCCCNc1nc(N)nc2cnn(Cc3ccc(CNCCOC)cc3OC)c12 [Compound 826],182 nM
22,CCCCNc1nc(N)nc2cnn(Cc3ccc(CN4CCN(C)CC4)cc3OC)c12 [Compound 827],47.6 nM

row,SMILES,EC50
1,CCCCNc1nc(N)nc2cnn(Cc3ccc(CNC(C)(C)C)cc3OC)c12 [Compound 828],98.7 nM
2,CCCCNc1nc(N)nc2cnn(Cc3ccc(Oc4ccc(C(C)(C)O)cc4)nc3)c12 [Compound 829],1340 nM
3,CCCCNCc1ccc(Cn2ncc3nc(N)nc(NCCCC)c32)c(OC)c1 [Compound 831],104 nM
4,CCCCNc1nc(N)nc2cnn(Cc3ccc(CN4CCCC4)cc3OC)c12 [Compound 833],31.1 nM
5,CCC[C@@H](CCO)Nc1nc(N)nc2cnn(Cc3ccc(CN4CC5CNCC5C4)cc3OC)c12 (stereo partly shown) [Compound 834],29.9 nM
6,CCC[C@@H](CCO)Nc1nc(N)nc2cnn(Cc3ccc(CN4CC5(CNC5)C4)cc3OC)c12 [Compound 835],89 nM
7,CCC[C@@H](CCO)Nc1nc(N)nc2cnn(Cc3ccc(Cn4ccnc4)cc3OC)c12 [Compound 836],15.3 nM
8,CCC[C@@H](CCO)Nc1nc(N)nc2cnn(Cc3ccc(CNCc4ccncc4)cc3OC)c12 [Compound 837],2.4 nM
9,CCC[C@@H](CCO)Nc1nc(N)nc2cnn(Cc3ccc(CN4CCCNCC4)cc3OC)c12 [Compound 838],39.6 nM
10,CCC[C@@H](CCO)Nc1nc(N)nc2cnn(Cc3ccc(CN4CC5CC4CN5)cc3OC)c12 (stereo partly shown) [Compound 839],242 nM
11,CCC[C@@H](CCO)Nc1nc(N)nc2cnn(Cc3ccc(CNC4CCC4)cc3OC)c12 [Compound 841],9.7 nM
12,CCC[C@@H](CCO)Nc1nc(N)nc2cnn(Cc3ccc(CN4CC(CCO)C4)cc3OC)c12 [Compound 842],28.3 nM
13,CCC[C@@H](CCO)Nc1nc(N)nc2cnn(Cc3ccc(CN4C[C@@H]5C[C@H]4CN5)cc3OC)c12 [Compound 843],55.9 nM
14,CCC[C@@H](CCO)Nc1nc(N)nc2cnn(Cc3ccc(CN4CCc5cnccc5C4)cc3OC)c12 [Compound 844],4.6 nM
15,CCCCNc1nc(N)nc2cnn(Cc3ccc(CN4CCCNCC4)cc3OC)c12 [Compound 845],21.2 nM
16,CCC[C@@H](CCNC(C)=O)Nc1nc(N)nc2cnn(Cc3ccc(CNC4(C)CCOCC4)cc3OC)c12 [Compound 847],187 nM
17,CCC[C@@H](CCO)Nc1nc(N)nc2cnn(Cc3ccc(CNC4(C)CCOCC4)cc3OC)c12 [Compound 848],33 nM
18,CCCCNc1nc(N)nc2cnn(Cc3ccc(CN4CCN(CCO)CC4)cn3)c12 [Compound 849],2030 nM
19,CCCCNc1nc(N)nc2cnn(Cc3ccc(CN4CCNCC4)cn3)c12 [Compound 850],1620 nM
20,CCCCNc1nc(N)nc2cnn(Cc3ccc(CN4CCCC4)cn3)c12 [Compound 851],1770 nM
21,CCCCNc1nc(N)nc2cnn(Cc3ccc(CN4CC5CC4CN5)cn3)c12 (stereo not shown) [Compound 852],3170 nM
22,CCCCNc1nc(N)nc2cnn(Cc3ccc(CNC4CCC4)cc3F)c12 [Compound 853],420 nM

row,SMILES,EC50
1,CCCCNc1nc(N)nc2cnn(Cc3ncc(CNC4CCC4)cc3OC)c12 [Compound 855],640 nM
2,CCCCNc1nc(N)nc2cnn(Cc3ncc(CNC4CCOCC4)cc3OC)c12 [Compound 856],1160 nM
3,CCCCNc1nc(N)nc2cnn(Cc3ccc(Oc4ccc(CNCC(C)(C)O)cc4)cc3OC)c12 [Compound 857],11.5 nM
4,CCCCNc1nc(N)nc2cnn(Cc3ccc(Oc4ccc(CNC5CCOCC5)cc4)cc3OC)c12 [Compound 858],10.8 nM
5,CCCCNc1nc(N)nc2cnn(Cc3ccc(Oc4ccc(CNC5CCC5)cc4)cc3OC)c12 [Compound 860],19.5 nM
6,CCC[C@@H](CCO)Nc1nc(N)nc2cnn(Cc3ccc(CN4CC(OC)C4)cc3OC)c12 [Compound 861],1.2 nM
7,CCC[C@@H](CCO)Nc1nc(N)nc2cnn(Cc3ccc(CN4CC(F)(F)C4)cc3OC)c12 [Compound 862],11 nM
8,CCC[C@@H](CCO)Nc1nc(N)nc2cnn(Cc3ccc(CN4CC(O)C4)cc3OC)c12 [Compound 863],9.5 nM
9,CCOCCNc1nc(N)nc2cnn(Cc3ccc(CNC4CCC4)cc3OC)c12 [Compound 864],216 nM
10,COCCNc1nc(N)nc2cnn(Cc3ccc(CNC4CCC4)cc3OC)c12 [Compound 865],959 nM
11,CCC[C@@H](CCO)Nc1nc(N)nc2cnn(Cc3ccc(CNC4CC(C(C)(C)C)C4)cc3OC)c12 (stereo partly shown) [Compound 866],19.5 nM
12,CCC[C@@H](CCO)Nc1nc(N)nc2cnn(Cc3ccc(CN4CC(OC(C)C)C4)cc3OC)c12 [Compound 868],1.4 nM
13,CCCCNc1nc(N)nc2cnn(Cc3ccc(CN4CCN(CCO)CC4)cc3F)c12 [Compound 870],1800 nM
14,CCC[C@H](CCO)Nc1nc(N)nc2cnn(Cc3ccc(CNC4CCC4)cc3OC)c12 [Compound 872],32.7 nM
15,CCCCNc1nc(N)nc2cnn(Cc3ccc(CC#N)cc3OC)c12 [Compound 873],253 nM
16,CCC[C@@H](CCO)Nc1nc(N)nc2cnn(Cc3ccc(CO)cc3)c12 [Compound 874],2050 nM
17,CCC[C@@H](CCO)Nc1nc(N)nc2cnn(Cc3ccc(CNC4CCC4)cc3)c12 [Compound 875],58 nM
18,CCC[C@@H](CCO)Nc1nc(N)nc2cnn(Cc3ccc(CN4CC(OC)C4)cc3)c12 [Compound 877],190 nM
19,CCC[C@@H](CCO)Nc1nc(N)nc2cnn(Cc3ccc(CN4CC(O)C4)cc3)c12 [Compound 878],1110 nM
20,CCC[C@@H](CCO)Nc1nc(N)nc2cnn(Cc3ccc(CN4CCN(CCO)CC4)cc3)c12 [Compound 879],370 nM

# Source: patent publication US11554120B2, “1H-pyrazolo[4,3-d]pyrimidine compounds as toll-like receptor 7 (TLR7) agonists and methods and uses therefor” (BRISTOL-MYERS SQUIBB COMPANY, priority 2018, dated 2023)
